# Data as given in patent EP3818828A1 (priority 2019, dated 2021).
# Like-named read-outs stand apart in the source and are kept apart here.
# Assays:
# Assay type in all cases: cell-based
# F. graminearum [1] = assay: microbe, parasite or virus in culture
# Magnaporthe grisea = assay: microbe, parasite or virus in culture
# F. graminearum [2] = assay: microbe, parasite or virus in culture; remark: listed apart in the source
# F. oxysporum f. sp. lini = assay: Ex vivo mycelial growth inhibition, growth rate method; conditions: 1 mg/mL
# Text: (§1) 3-(3',4'-methylenedioxy phenyl)-N-n-propyl acrylamide (at a purity of 99%), 3-(3',4'-methylenedioxy phenyl)-piperidine acrylate (at a purity of 99%), the control agents, 96.5% of chlorothalonil technical (non-systemic broad-spectrum fungicide), 97.2% of carbendazim technical (systemic broad-spectrum fungicide), 97.0% of procymidone technical (systemic fungicide), 96.0% of dimethomorphtechnical ((E,Z)-4-[3-(4-chlorphenyl)3-(3,4-dimethoxy phenyl)acryloyl]morpholine, systemic fungicide), 97.0% of azoxystrobin technical (systemic broad-spectrum fungicide).
# (§2) The inhibition of samples for testing on the mycelial growth of plant pathogenic fungi for testing is determined with a growth rate method. 3-(3',4'-methylenedioxy phenyl)-N-n-propyl acrylamide, 3-(3',4'-methylenedioxy phenyl)-piperidine acrylate and five control agents are dissolved with dimethyl sulfoxide (DMSO), then formulated at 5-7 concentrations of different gradients for test following the trial test results, with the same concentration of DMSO as the control solvent, each treatment in triplicate. Fungal cakes with a diameter of 4 mm are taken from the edge of the colony, inoculated into the center of a PDA plate containing different agents of different concentrations and the DMSO control, with one piece of fungal cake inoculated in each plate (with a diameter of […]), and incubated in a constant temperature incubator at a temperature of 22±1.5°C. 7 days later (10-20 days may be needed for some pathogenic fungi), the diameter of the colony is measured with a cross over method according to the mycelial growth profile of the control pathogenic fungi, then the inhibition rate of mycelial growth is calculated.
# (§3) The computational formula is as below: the inhibition rate of mycelial growth (%) = [(the diameter of the control colony - the diameter of the treated colony)/the diameter of the control colony] × 100.
# (§4) The inhibition results of each agent at a concentration of 1 mg/mL on the mycelial growth of plant pathogenic fungi are shown in Tables 1 and 2.
# Sclerotinia sclerotiorum [3] = assay: as above; conditions: 1 mg/mL
# Text: as §1, §2, §3, §4
# Pythium aphanidermatum = assay: as above; conditions: 1 mg/mL
# Text: as §1, §2, §3, §4
# C. gossypii = assay: as above; conditions: 1 mg/mL
# Text: as §1, §2, §3, §4
# Rhizoctonia solani = assay: as above; conditions: Rhizoctonia solani; 1 mg/mL
# Text: as §1, §2, §3, §4
# Botrytis cinerea [4] = assay: as above; conditions: 1 mg/mL
# Text: as §1, §2, §3, §4
# Valsa mali [5] = assay: as above; conditions: 1 mg/mL
# Text: as §1, §2, §3, §4
# Colletotrichum capsici [6] = assay: as above; conditions: 1 mg/mL
# Text: as §1, §2, §3, §4
# [7] = system: Botryosphaeria berengeriana; assay: as above; conditions: 1 mg/mL
# Text: as §1, §2, §3, §4
# Phytophthora capsici = assay: as above; conditions: Phytophthora capsici; 1 mg/mL
# Text: as §1, §2, §3, §4
# [8] = system: F. oxysporum f. sp. vasinfectum; assay: as above; conditions: 1 mg/mL
# Text: as §1, §2, §3, §4
# [9] = system: Botryosphaeriana berengeriana; assay: as above; conditions: 1 mg/mL
# Text: as §1, §2, §3, §4
# Thanatephorus cucumeris = assay: as above; conditions: 1 mg/mL
# Text: as §1, §2, §3, §4
# Exserohilum turcicum [10] = assay: as above; conditions: 1 mg/mL
# Text: as §1, §2, §3, §4
# [11] = system: Gaeumannomyces graminis var. graminis and G. graminis var. tritici; assay: as above; conditions: 1 mg/mL
# Text: as §1, §2, §3, §4
# F. verticillioide = assay: as above; conditions: 1 mg/mL
# Text: as §1, §2, §3, §4
# Mycosphaerlla melonis = assay: as above; conditions: 1 mg/mL
# Text: as §1, §2, §3, §4
# Coniella diplodiella = assay: as above; conditions: 1 mg/mL
# Text: as §1, §2, §3, §4
# Sclerotinia sclerotiorum [12] = assay: Toxicity determination (EC50) on mycelial growth, growth rate method
# Experimental: as §2
# (§5) 3-(3',4'-methylenedioxy phenyl)-piperidine acrylate, the control agents 96.5% of chlorothalonil technical and 97.0% of procymidone technical. Agents for testing and the control agents chlorothalonil and procymidone are treated at 5-8 concentrations of different gradients on the basis of preliminary tests to ensure that the inhibition rates for treatments at all the concentrations are between 10% and 90%.
# (§6) For specific determination methods, with reference to Embodiment 1. The concentration of active ingredients in the culture medium is used as the testing concentration to calculate the toxic regression equation (Y=bx+a) and the median inhibition concentration EC50, 95% confidence limit, and relative toxicity. Relative toxicity (compared to chlorothalonil) = EC50 of chlorothalonil / EC50 of 3-(3',4'-methylenedioxy phenyl)-piperidine acrylate, and relative toxicity (compared to procymidone) = EC50 of procymidone / EC50 of 3-(3',4'-methylenedioxy phenyl)-piperidine acrylate.
# Botrytis cinerea [13] = assay: as above
# Experimental: as §2, §5, §6
# Valsa mali [14] = assay: as above
# Experimental: as §2, §5, §6
# Colletotrichum capsici [15] = assay: as above
# Experimental: as §2, §5, §6
# Exserohilum turcicum [16] = assay: as above
# Experimental: as §2, §5, §6
# Phytophthora infestans [17] = assay: microbe, parasite or virus in culture; conditions: 1 mg/mL
# Fusarium graminearum [18] = assay: microbe, parasite or virus in culture
# Fusarium graminearum [19] = assay: microbe, parasite or virus in culture; remark: listed apart in the source
# Phytophthora infestans [20] = conditions: Phytophthora infestas; 1 mg/mL
# Pyricularia grisea = assay: microbe, parasite or virus in culture
# Phytophthora infestans [21] = assay: microbe, parasite or virus in culture
# [22] = EC50 of chlorothalonil / EC50 of agent
# [23] = EC50 of procymidone / EC50 of agent
# [24] = median inhibition concentration
structure (smiles),measurement,setting,value
"CC12CC1(C)C(=O)N(c1cc(Cl)cc(Cl)c1)C2=O (centres unmarked) [Procymidone, procymidone]",Relative Toxicity (Compared to Chlorothalonil),F. graminearum [1]; [22],0.27
same,Relative Toxicity (Compared to Procymidone),F. graminearum [1]; [23],1.00
same,EC50,"F. graminearum [1]; Fusarium graminearum, median inhibition concentration",850 µg/mL
same,Relative Toxicity (Compared to Chlorothalonil),Magnaporthe grisea; [22],1.42
same,Relative Toxicity (Compared to Procymidone),Magnaporthe grisea; [23],1.00
same,EC50,"Magnaporthe grisea; Pyricularia oryzae, median inhibition concentration",308 µg/mL
same,Average Diameter of the Colony,"F. graminearum [2]; F. graminearum, 1 mg/mL",3.57 cm
same,inhibition at 1000 µg/mL,"F. graminearum [2]; Fusarium graminearum, read-out: Inhibition Rate",58.5%
same,Average Diameter of the Colony,F. oxysporum f. sp. lini,6.33 cm
same,inhibition at 1000 µg/mL,F. oxysporum f. sp. lini; Fusarium oxysporum,29.7%
same,Average Diameter of the Colony,Sclerotinia sclerotiorum [3],0.00 cm
same,inhibition at 1000 µg/mL,Sclerotinia sclerotiorum [3],100%
same,Average Diameter of the Colony,Pythium aphanidermatum,6.20 cm
same,inhibition at 1000 µg/mL,Pythium aphanidermatum,7.46%
same,Average Diameter of the Colony,C. gossypii; C. gossypii,1.62 cm
same,inhibition at 1000 µg/mL,"C. gossypii; Colletotrichum gossypii, C. cossypii, read-out: Inhibition Rate",70%
same,Average Diameter of the Colony,Rhizoctonia solani,0.00 cm
same,inhibition at 1000 µg/mL,Rhizoctonia solani,100%
same,Average Diameter of the Colony,Botrytis cinerea [4],1.74 cm
same,inhibition at 1000 µg/mL,Botrytis cinerea [4],76.8%
same,Average Diameter of the Colony,Valsa mali [5],0.83 cm
same,inhibition at 1000 µg/mL,Valsa mali [5]; Cytospora mali,89%
same,Average Diameter of the Colony,Colletotrichum capsici [6],1.19 cm
same,inhibition at 1000 µg/mL,Colletotrichum capsici [6]; Colletotrichum truncatum,82.5%
same,Average Diameter of the Colony,[7],0.15 cm
same,inhibition at 1000 µg/mL,[7],97.8%
same,Average Diameter of the Colony,Phytophthora capsici,5.10 cm
same,inhibition at 1000 µg/mL,Phytophthora capsici,3.77%
same,Average Diameter of the Colony,[8],2.57 cm
same,inhibition at 1000 µg/mL,[8]; Fusarium oxysporum,64.5%
same,Average Diameter of the Colony,[9],0.20 cm
same,inhibition at 1000 µg/mL,[9],96.5%
same,Average Diameter of the Colony,Thanatephorus cucumeris,0.54 cm
same,inhibition at 1000 µg/mL,Thanatephorus cucumeris,93.7%
same,Average Diameter of the Colony,Exserohilum turcicum [10],0.24 cm
same,inhibition at 1000 µg/mL,Exserohilum turcicum [10],96.1%
same,Average Diameter of the Colony,[11],2.16 cm
same,inhibition at 1000 µg/mL,[11],69.8%
same,Average Diameter of the Colony,F. verticillioide,2.57 cm
same,inhibition at 1000 µg/mL,F. verticillioide,24%
same,Average Diameter of the Colony,Mycosphaerlla melonis,0.24 cm
same,inhibition at 1000 µg/mL,Mycosphaerlla melonis,97.2%
same,Average Diameter of the Colony,Coniella diplodiella,0.06 cm
same,inhibition at 1000 µg/mL,Coniella diplodiella,99.1%
same,Relative Toxicity (Compared to Chlorothalonil),Sclerotinia sclerotiorum [12]; [22],0.89
same,Relative Toxicity (Compared to Procymidone),Sclerotinia sclerotiorum [12]; [23],1.00
same,EC50,Sclerotinia sclerotiorum [12]; [24],70.6 µg/mL
same,Relative Toxicity (Compared to Chlorothalonil),Botrytis cinerea [13]; [22],2.24
same,Relative Toxicity (Compared to Procymidone),Botrytis cinerea [13]; [23],1.00
same,EC50,Botrytis cinerea [13]; [24],78.9 µg/mL
same,Relative Toxicity (Compared to Chlorothalonil),Valsa mali [14]; [22],0.98
same,Relative Toxicity (Compared to Procymidone),Valsa mali [14]; [23],1.00
same,EC50,Valsa mali [14]; [24],427.3 µg/mL
same,EC50,"Colletotrichum capsici [15]; Colletotrichum truncatum, median inhibition concentration, read-out: EC50",518 µg/mL
same,Relative Toxicity (Compared to Chlorothalonil),Colletotrichum capsici [15]; [22],0.78
same,Relative Toxicity (Compared to Procymidone),Colletotrichum capsici [15]; [23],1.00
same,Relative Toxicity (Compared to Chlorothalonil),Exserohilum turcicum [16]; [22],3.92
same,Relative Toxicity (Compared to Procymidone),Exserohilum turcicum [16]; [23],1.00
same,EC50,"Exserohilum turcicum [16]; median inhibition concentration, read-out: EC50",105 µg/mL
same,Average Diameter of the Colony,Phytophthora infestans [17],0.00 cm
same,Relative Toxicity (Compared to Chlorothalonil),Fusarium graminearum [18]; [22],3.27
same,Relative Toxicity (Compared to Procymidone),Fusarium graminearum [18]; [23],1.00
same,EC50,Fusarium graminearum [18]; [24],144 µg/mL
same,Average Diameter of the Colony,Fusarium graminearum [19]; 1 mg/mL,2.26 cm
same,inhibition at 1000 µg/mL,Fusarium graminearum [19]; read-out: Inhibition Rate,57.7%
same,Average Diameter of the Colony,Phytophthora infestans [20],0.80 cm
same,Average Diameter of the Colony,Pyricularia grisea; 1 mg/mL,4.63 cm
same,inhibition at 1000 µg/mL,Pyricularia grisea; read-out: Inhibition Rate,48.6%
same,Relative Toxicity (Compared to Chlorothalonil),Phytophthora infestans [21]; [22],0.15
same,Relative Toxicity (Compared to Procymidone),Phytophthora infestans [21]; [23],1.00
same,EC50,Phytophthora infestans [21]; [24],778 µg/mL
